From US10604554B2, “Double-acylated GLP-1 derivatives” (Novo Nordisk A/S, priority 2012, dated 2020)
Read-outs that look alike come from different tables or passages of the source.

Experiments:
[1] = biological target: T1, human GLP-1 receptor (Homo sapiens, UniProt P43220); experiment: In vitro potency (AlphaScreen cAMP, membranes); format: biochemical
T1 construct: expressed in transfected cells; host or cells: BHK cells, clone FCW467-12A/KZ10-1 (parent line BHKTS13), further transfected with CRE luciferase
Procedure, shortened: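 Plasma membranes (6 μg/well) from BHK467-12A cells stably expressing human GLP-1 receptor stimulated with peptide in pH 7.4 Tris/HEPES buffer with 0.1% BSA, 0.5 mM IBMX, 1 mM ATP, 1 μM GTP. cAMP detected by AlphaScreen competition with biotin-cAMP after 3 h at RT, against cAMP standard.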

[2] = in vivo; conditions: male, Sprague Dawley, rat, iv
[3] = in vivo; conditions: male, Göttingen, minipig, iv
Method: (§1) The purpose of this study is to determine the protraction in vivo of the GLP-1 derivatives after i.v. administration to minipigs, i.e. the prolongation of their time of action. This is done in a pharmacokinetic (PK) study, where the terminal half-life of the derivative in question is determined. By terminal half-life is generally meant the period of time it takes to halve a certain plasma concentration, measured after the initial distribution phase.
(§2) Study A: Male Göttingen minipigs were obtained from Ellegaard Göttingen Minipigs (Dalmose, Denmark) approximately 7-14 months of age and weighing from approximately 16-35 kg were used in the studies. The minipigs were housed individually and fed restrictedly once or twice daily with SDS minipig diet (Special Diets Services, Essex, UK). After at least 2 weeks of acclimatisation two permanent central venous catheters were implanted in vena cava caudalis or cranialis in each animal. The animals were allowed 1 week recovery after the surgery, and were then used for repeated pharmacokinetic studies with a suitable wash-out period between successive GLP-1 derivative dosings.
(§3) The animals were fasted for approximately 18 h before dosing and from 0 to 4 h after dosing, but had ad libitum access to water during the whole period.
(§4) The GLP-1 derivatives were dissolved in 50 mM sodium phosphate, 145 mM sodium chloride, 0.05% tween 80, pH 7.4 to a concentration of usually from 20-60 nmol/ml. […] Blood samples (for example 0.8 ml) were collected in EDTA buffer (8 mM) and then centrifuged at 4° C. and 1942 G for 10 minutes.
(§5) Study B: Male Göttingen minipigs were obtained from Ellegaard Göttingen Minipigs (Dalmose, Denmark) approximately 5 months of age and weighing from approximately 9 kg were used in the studies. The minipigs were housed in pens with straw as bedding, six together in each pen and fed restrictedly once or twice daily with Altromin 9023 minipig diet (Chr. Petersen A/S, DK-4100 Ringsted) or Standard SMP(E) minipig diet (Special Diet Services (SDS), UK). The pigs were used for repeated pharmacokinetic studies with a suitable wash-out period between successive GLP-1 derivative dosings.
(§6) The GLP-1 derivatives were dissolved in 50 mM sodium phosphate, 145 mM sodium chloride, 0.05% tween 80, pH 7.4 to a concentration of usually from 20-60 nmol/ml. Intravenous injections (the volume corresponding to usually 2 nmol/kg, for example 0.1 ml/kg) of the compounds were given as intravenous injections via a Venflon inserted in an ear vein, while they are placed unanaesthetised in a sling. The dose volume was 0.1 ml/kg, and blood was sampled at predefined time points for up till 17 days post dosing (samples was taken with syringe from a jugular vein).
(§7) Individual plasma concentration-time profiles were analyzed by a non-compartmental model in Phoenix WinNonLin ver. […] (Pharsight Inc., Mountain View, Calif., USA), and the resulting terminal half-lives (harmonic mean) determined.

[4] = Pharmacokinetic (PK) study in minipig; conditions: male, Göttingen, in vivo, iv
Method: as §1, §2, §3, §4, §5, §6, §7

[5] = tested on: Landrace Yorkshire Duroc (LYD) pigs; experiment: Pharmacodynamic (PD) study in pigs, food intake; format: in vivo, pig; conditions: single s.c. dose 3.0 nmol/kg
Method: The purpose of this experiment was to investigate the effect of a couple of Example compounds on food intake in pigs. This was done in a pharmacodynamic (PD) study as described below, in which food intake was measured from 1 to 4 days after administration of a single dose of the GLP-1 derivative, as compared to a vehicle-treated control group.
Female Landrace Yorkshire Duroc (LYD) pigs, approximately 3 months of age, weighing approximately 30-35 kg were used (n=3-4 per group). The animals were housed in a group for approximately 1 week during acclimatisation to the animal facilities. During the experimental period the animals were placed in individual pens at least 2 days before dosing and during the entire experiment for measurement of individual food intake. The animals were fed ad libitum with pig fodder (Svinefoder Danish Top) at all times both during the acclimatisation and the experimental period. Food intake was monitored on line by logging the weight of fodder every 15 minutes. The system used was Mpigwin (Ellegaard Systems, Faaborg, Denmark).
The phosphate buffer serves as vehicle. Animals are dosed with a single subcutaneous dose of the GLP-1 derivative or vehicle (dose volume 0.025 ml/kg) on the morning of day 1, and food intake is measured for 1 day after dosing. On the last day of each study, 1-4 days after dosing, a blood sample for measurement of plasma exposure of the GLP-1 derivative is taken from the heart in anaesthetised animals. The animals are thereafter euthanised with an intra-cardial overdose of pentobarbitone.
Food intake is calculated as mean±SEM food intake in 24 h intervals (0-24 h, 24-48 h, and 48-72 h). In Table 6 below the food intake is indicated as percentage of the food intake of the vehicle group in the same time interval (dosage 3.0 nmol/kg).
Statistical comparisons of the food intake in the 24 h intervals in the vehicle vs. GLP-1 derivative group are done using two-way-ANOVA repeated measures, followed by Bonferroni post-test.

[6] = Pharmacokinetic (PK) study in rat; conditions: male, Sprague Dawley, in vivo, iv, 6 nmol/kg
[7] = cAMP formation in membranes from BHK467-12A cells expressing human GLP-1 receptor, read-out: In vitro potency (AlphaScreen) EC50

T1 sequence (P43220 24-463): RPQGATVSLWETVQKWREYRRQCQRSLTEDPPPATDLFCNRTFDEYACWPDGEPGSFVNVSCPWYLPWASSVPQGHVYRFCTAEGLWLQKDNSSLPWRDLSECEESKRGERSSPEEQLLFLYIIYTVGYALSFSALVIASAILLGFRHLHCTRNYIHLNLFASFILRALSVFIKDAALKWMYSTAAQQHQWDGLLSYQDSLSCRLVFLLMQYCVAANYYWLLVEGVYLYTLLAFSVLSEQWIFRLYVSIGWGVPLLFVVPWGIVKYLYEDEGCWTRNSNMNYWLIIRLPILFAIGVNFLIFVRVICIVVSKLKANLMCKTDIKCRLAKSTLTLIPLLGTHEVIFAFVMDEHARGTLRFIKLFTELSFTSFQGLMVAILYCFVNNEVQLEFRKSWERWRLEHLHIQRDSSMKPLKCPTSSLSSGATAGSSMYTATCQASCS

SMILES | EC50 [1, 7] | half-life [2] | half-life [3] | half-life [4] | EC50 [1] | PD in pig, food intake (% of vehicle) for hours 0-24 ([5]; 0-24 h) | PD in pig, food intake (% of vehicle) for hours 24-48 ([5]; 24-48 h) | half-life [6]
CC[C@H](C)[C@H](NC(=O)[C@H](Cc1ccccc1)NC(=O)[C@H](CCC(=O)O)NC(=O)[C@H](CCCCNC(=O)[C@@H](N)CCCCNC(=O)CC[C@H](NC(=O)CC[C@H](NC(=O)CC[C@H](NC(=O)CCCCCCCCCCCCCCC(=O)O)C(=O)O)C(=O)O)C(=O)O)NC(=O)[C@H](C)NC(=O)[C@H](C)NC(=O)[C@H](CCC(N)=O)NC(=O)CNC(=O)[C@H](CCC(=O)O)NC(=O)[C@H](CC(C)C)NC(=O)[C@H](Cc1ccc(O)cc1)NC(=O)[C@H](CO)NC(=O)[C@H](CO)NC(=O)[C@@H](NC(=O)[C@H](CC(=O)O)NC(=O)[C@H](CO)NC(=O)[C@@H](NC(=O)[C@H](Cc1ccccc1)NC(=O)[C@@H](NC(=O)CNC(=O)[C@H](CCC(=O)O)NC(=O)C(C)(C)NC(=O)[C@@H](N)Cc1c[nH]cn1)[C@@H](C)O)[C@@H](C)O)C(C)C)C(=O)N[C@@H](C)C(=O)N[C@@H](Cc1c[nH]c2ccccc12)C(=O)N[C@@H](CC(C)C)C(=O)N[C@H](C(=O)N[C@@H](CCCNC(=N)N)C(=O)NCC(=O)N[C@@H](CCCNC(=N)N)C(=O)N[C@@H](CCCCNC(=O)[C@@H](N)CCCCNC(=O)CC[C@H](NC(=O)CC[C@H](NC(=O)CC[C@H](NC(=O)CCCCCCCCCCCCCCC(=O)O)C(=O)O)C(=O)O)C(=O)O)C(=O)O)C(C)C [Example 13, N^ε26-[(2S)-2-amino-6-[[(4S)-4-carboxy-4-[[(4S)-4-carboxy-4-[[(4S)-4-carboxy-4-(15-carboxypentadecanoylamino)butanoyl]amino]butanoyl]amino]butanoyl]amino]hexanoyl], N^ε37-[(2S)-2-amino-6-[[(4S)-4-carboxy-4-[[(4S)-4-carboxy-4-[[(4S)-4-carboxy-4-(15-carboxypentadecanoylamino)butanoyl]amino]butanoyl]amino]butanoyl]amino]hexanoyl]-[Aib^8,Arg^34,Lys^37]-GLP-1-(7-37)-peptide] | 0.385 nM | 31 h | 93 h |  |  |  |  | 
CC[C@H](C)[C@H](NC(=O)[C@H](Cc1ccccc1)NC(=O)[C@H](CCC(=O)O)NC(=O)[C@H](CCCCNC(=O)[C@@H](N)CCCCNC(=O)[C@@H](N)CCCCNC(=O)CC[C@H](NC(=O)CCCCCCCCCCCCCCCCC(=O)O)C(=O)O)NC(=O)[C@H](C)NC(=O)[C@H](C)NC(=O)[C@H](CCC(N)=O)NC(=O)CNC(=O)[C@H](CCC(=O)O)NC(=O)[C@H](CC(C)C)NC(=O)[C@H](Cc1ccc(O)cc1)NC(=O)[C@H](CO)NC(=O)[C@H](CO)NC(=O)[C@@H](NC(=O)[C@H](CC(=O)O)NC(=O)[C@H](CO)NC(=O)[C@@H](NC(=O)[C@H](Cc1ccccc1)NC(=O)[C@@H](NC(=O)CNC(=O)[C@H](CCC(=O)O)NC(=O)C(C)(C)NC(=O)[C@@H](N)Cc1c[nH]cn1)[C@@H](C)O)[C@@H](C)O)C(C)C)C(=O)N[C@@H](C)C(=O)N[C@@H](Cc1c[nH]c2ccccc12)C(=O)N[C@@H](CC(C)C)C(=O)N[C@H](C(=O)N[C@@H](CCCNC(=N)N)C(=O)NCC(=O)N[C@@H](CCCNC(=N)N)C(=O)N[C@@H](CCCCNC(=O)[C@@H](N)CCCCNC(=O)[C@@H](N)CCCCNC(=O)CC[C@H](NC(=O)CCCCCCCCCCCCCCCCC(=O)O)C(=O)O)C(=O)O)C(C)C [Example 27, N^ε26-[(2S)-2-amino-6-[[(2S)-2-amino-6-[[(4S)-4-carboxy-4-(17-carboxyheptadecanoylamino)butanoyl]amino]hexanoyl]amino]hexanoyl], N^ε37-[(2S)-2-amino-6-[[(2S)-2-amino-6-[[(4S)-4-carboxy-4-(17-carboxyheptadecanoylamino)butanoyl]amino]hexanoyl]amino]hexanoyl]-[Aib^8,Arg^34,Lys^37]-GLP-1-(7-37)-peptide] | 3.69 nM | 21 h |  |  |  |  |  | 
CC[C@H](C)[C@H](NC(=O)[C@H](Cc1ccccc1)NC(=O)[C@H](CCC(=O)O)NC(=O)[C@H](CCCCNC(=O)[C@@H](N)CCCCNC(=O)[C@@H](N)CCCCNC(=O)CC[C@H](NC(=O)CC[C@H](NC(=O)CCCCCCCCCCCOc1ccc(C(=O)O)cc1)C(=O)O)C(=O)O)NC(=O)[C@H](C)NC(=O)[C@H](C)NC(=O)[C@H](CCC(N)=O)NC(=O)CNC(=O)[C@H](CCC(=O)O)NC(=O)[C@H](CC(C)C)NC(=O)[C@H](Cc1ccc(O)cc1)NC(=O)[C@H](CO)NC(=O)[C@H](CO)NC(=O)[C@@H](NC(=O)[C@H](CC(=O)O)NC(=O)[C@H](CO)NC(=O)[C@@H](NC(=O)[C@H](Cc1ccccc1)NC(=O)[C@@H](NC(=O)CNC(=O)[C@H](CCC(=O)O)NC(=O)C(C)(C)NC(=O)[C@@H](N)Cc1c[nH]cn1)[C@@H](C)O)[C@@H](C)O)C(C)C)C(=O)N[C@@H](C)C(=O)N[C@@H](Cc1c[nH]c2ccccc12)C(=O)N[C@@H](CC(C)C)C(=O)N[C@H](C(=O)N[C@@H](CCCNC(=N)N)C(=O)NCC(=O)N[C@@H](CCCNC(=N)N)C(=O)N[C@@H](CCCCNC(=O)[C@@H](N)CCCCNC(=O)[C@@H](N)CCCCNC(=O)CC[C@H](NC(=O)CC[C@H](NC(=O)CCCCCCCCCCCOc1ccc(C(=O)O)cc1)C(=O)O)C(=O)O)C(=O)O)C(C)C [Example 16, N^ε26-[(2S)-2-amino-6-[[(2S)-2-amino-6-[[(4S)-4-carboxy-4-[[(4S)-4-carboxy-4-[12-(4-carboxyphenoxy)dodecanoylamino]butanoyl]amino]butanoyl]amino]hexanoyl]amino]hexanoyl], N^ε37-[(2S)-2-amino-6-[[(2S)-2-amino-6-[[(4S)-4-carboxy-4-[[(4S)-4-carboxy-4-[12-(4-carboxyphenoxy)dodecanoylamino]butanoyl]amino]butanoyl]amino]hexanoyl]amino]hexanoyl]-[Aib^8,Arg^34,Lys^37]-GLP-1-(7-37)-peptide] |  |  |  | 64 h | 0.154 nM | 33 % of vehicle | 43 % of vehicle | 17 h
CC[C@H](C)[C@H](NC(=O)[C@H](Cc1ccccc1)NC(=O)[C@H](CCC(=O)O)NC(=O)[C@H](CCCCNC(=O)[C@@H](N)CCCCNC(=O)[C@@H](N)CCCCNC(=O)CC[C@H](NC(=O)CC[C@H](NC(=O)CCCCCCCCCCCCCCC(=O)O)C(=O)O)C(=O)O)NC(=O)[C@H](C)NC(=O)[C@H](C)NC(=O)[C@H](CCC(N)=O)NC(=O)CNC(=O)[C@H](CCC(=O)O)NC(=O)[C@H](CC(C)C)NC(=O)[C@H](Cc1ccc(O)cc1)NC(=O)[C@H](CO)NC(=O)[C@H](CO)NC(=O)[C@@H](NC(=O)[C@H](CC(=O)O)NC(=O)[C@H](CO)NC(=O)[C@@H](NC(=O)[C@H](Cc1ccccc1)NC(=O)[C@@H](NC(=O)CNC(=O)[C@H](CCC(=O)O)NC(=O)C(C)(C)NC(=O)[C@@H](N)Cc1c[nH]cn1)[C@@H](C)O)[C@@H](C)O)C(C)C)C(=O)N[C@@H](C)C(=O)N[C@@H](Cc1c[nH]c2ccccc12)C(=O)N[C@@H](CC(C)C)C(=O)N[C@H](C(=O)N[C@@H](CCCNC(=N)N)C(=O)NCC(=O)N[C@@H](CCCNC(=N)N)C(=O)N[C@@H](CCCCNC(=O)[C@@H](N)CCCCNC(=O)[C@@H](N)CCCCNC(=O)CC[C@H](NC(=O)CC[C@H](NC(=O)CCCCCCCCCCCCCCC(=O)O)C(=O)O)C(=O)O)C(=O)O)C(C)C [Example 12, N^ε26-[(2S)-2-amino-6-[[(2S)-2-amino-6-[[(4S)-4-carboxy-4-[[(4S)-4-carboxy-4-(15-carboxypentadecanoylamino)butanoyl]amino]butanoyl]amino]hexanoyl]amino]hexanoyl], N^ε37-[(2S)-2-amino-6-[[(2S)-2-amino-6-[[(4S)-4-carboxy-4-[[(4S)-4-carboxy-4-(15-carboxypentadecanoylamino)butanoyl]amino]butanoyl]amino]hexanoyl]amino]hexanoyl]-[Aib^8,Arg^34, Lys^37]-GLP-1-(7-37)-peptide] | 0.227 nM | 28 h | 109 h |  |  |  |  | 
